Values joined by “and” are separate entries in the source; they are usually repeats but may differ in a detail not shown here. Equal entries are not always repeated. Where two headings read alike, the source gives them in different places.
Key:
KOR [1] = molecular target: T1, KOR (Homo sapiens, UniProt P41145); assay: Radioligand binding assay, displacement of [3H]U69593 from CHO cells; design: host or cells: CHO cells, stably transfected; membranes; conditions: for inhibition at 1 µM: displacement of [3H]U69593 at 1.0 μM
DOR [2] = molecular target: T2, DOR (Homo sapiens, UniProt P41143); assay: Radioligand binding assay, displacement of [3H]DPDPE from CHO cell membranes; design: host or cells: CHO cells, stably transfected; membranes; conditions: for Ki: [3H]DPDPE, CHO membranes, read-out: Ki (±SEM) DOR; for activity / affinity for DOR, in words: in vitro
KOR [3] = molecular target: T1, KOR; design: host or cells: CHO cells, stably transfected; membranes; method as in PMID 27096047; conditions: cited from earlier work; for Ki: read-out: Ki (±SEM) KOR
DOR [4] = molecular target: T2, DOR; design: host or cells: CHO cells, stably transfected; membranes; method as in PMID 27096047
human MOR [5] = molecular target: T3, human MOR (Homo sapiens, UniProt P35372); assay: [35S]GTP-γ-S functional assay, CHO cell membranes; format: biochemical; conditions: stimulation of [35S]GTPγS binding; NA = no activity
Description: In a final volume of 0.5 mL, various concentrations of each tested compound were incubated with […] (μ) of CHO cell membranes that stably expressed the human MOR. The assay buffer consisted of 50 mM Tris-HCl, pH 7.4, 3 mM MgCl2, 0.2 mM EGTA, […] and 100 mM NaCl. The final concentration of [^35S]GTP-γ-S was 0.08 nM. Nonspecific binding was measured by the inclusion of […] GTP-γ-S. Binding was initiated by the addition of the membranes. After an incubation period of 60 min at 30 °C, the reactions were terminated by rapid filtration, and the radioactivity was determined by liquid scintillation counting.

human MOR [6] = molecular target: T3, human MOR; design: method as in PMID 27096047; conditions: cited from earlier work
KOR [7] = molecular target: T1, KOR; design: expressed in transfected cells; method as in PMID 27096047; conditions: stimulation of [35S]GTPγS binding; NA = no activity; cited from earlier work
DOR [8] = molecular target: T2, DOR; design: expressed in transfected cells; method as in PMID 27096047; conditions: stimulation of [35S]GTPγS binding; NA = no activity; cited from earlier work
human MOR [9] = molecular target: T3, human MOR; assay: Radioligand binding assay, displacement of [3H]DAMGO from CHO cell membranes

T1 sequence (P41145 whole entry): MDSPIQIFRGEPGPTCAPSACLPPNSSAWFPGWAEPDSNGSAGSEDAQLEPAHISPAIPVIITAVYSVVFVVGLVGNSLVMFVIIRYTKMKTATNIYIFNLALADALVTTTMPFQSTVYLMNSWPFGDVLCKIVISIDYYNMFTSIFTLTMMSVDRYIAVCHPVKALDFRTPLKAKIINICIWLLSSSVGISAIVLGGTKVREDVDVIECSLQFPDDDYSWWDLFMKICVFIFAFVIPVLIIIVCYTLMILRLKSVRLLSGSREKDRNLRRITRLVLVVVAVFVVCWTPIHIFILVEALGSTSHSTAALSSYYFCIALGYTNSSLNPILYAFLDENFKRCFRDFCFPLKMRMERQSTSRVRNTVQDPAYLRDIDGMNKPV
T3 sequence (P35372 whole entry): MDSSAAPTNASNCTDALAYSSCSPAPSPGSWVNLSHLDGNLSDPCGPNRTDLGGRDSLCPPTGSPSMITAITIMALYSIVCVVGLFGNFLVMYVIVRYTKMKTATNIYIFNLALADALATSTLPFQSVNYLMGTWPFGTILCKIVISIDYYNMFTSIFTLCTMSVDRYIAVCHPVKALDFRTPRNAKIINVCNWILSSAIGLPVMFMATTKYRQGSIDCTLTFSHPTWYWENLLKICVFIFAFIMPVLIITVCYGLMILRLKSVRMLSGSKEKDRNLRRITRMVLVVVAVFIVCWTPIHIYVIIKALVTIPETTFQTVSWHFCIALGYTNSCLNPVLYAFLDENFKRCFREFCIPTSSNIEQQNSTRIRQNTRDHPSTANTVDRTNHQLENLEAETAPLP
T2 sequence (P41143 whole entry): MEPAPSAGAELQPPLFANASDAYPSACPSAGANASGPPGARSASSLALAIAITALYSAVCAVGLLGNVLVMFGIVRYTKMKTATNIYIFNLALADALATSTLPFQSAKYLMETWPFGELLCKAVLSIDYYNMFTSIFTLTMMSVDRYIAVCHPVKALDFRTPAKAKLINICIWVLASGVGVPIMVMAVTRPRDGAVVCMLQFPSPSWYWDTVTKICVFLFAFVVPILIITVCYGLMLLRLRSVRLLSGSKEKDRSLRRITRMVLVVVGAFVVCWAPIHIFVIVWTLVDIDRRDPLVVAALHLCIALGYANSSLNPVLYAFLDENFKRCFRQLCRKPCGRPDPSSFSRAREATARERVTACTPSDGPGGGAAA

COc1ccccc1-c1ccc2c(c1)CCC(CN(C)CCc1ccccc1)C2(O)c1cccc(O)c1.Cl (stereo not shown) [FW-DI-OH-2, 1-(3-hydroxyphenyl)-6-(2-methoxyphenyl)-2-((methyl(phenethyl)amino)methyl)-1,2,3,4-tetrahydronaphthalen-1-ol hydrochloride]
melting point: 200.2 to 202.4 °C | inhibition at 1 µM (KOR [1]): 30.1 ± 2.1% | Ki (DOR [2]): 8.7 nM and 8.65 nM | activity / affinity for DOR, in words (DOR [2]): high affinitive

CN(C)CC1CCCCC1(O)c1cccc(O)c1 (stereo not shown) [M1, reference compound]
Ki (KOR [3]; [3H]U69593, CHO cells, >10^4 = no binding affinity up to 10^4 nM): > 10000 nM | Ki (DOR [4]; read-out: Ki (±SEM) DOR; [3H]DPDPE, CHO membranes; >10^4 = no binding affinity up to 10^4 nM; cited from earlier work): > 10000 nM | Emax (human MOR [5]): 226 ± 9%

CN(C)CC1CCc2cc(-c3ccccc3)ccc2C1(O)c1cccc(O)c1 (stereo not shown) [FW-AII-OH-1]
Ki (KOR [3]): 141 nM and 140 nM | Inhibition (%) DOR (DOR [4]; displacement of [3H]DPDPE at 1.0 μM; cited from earlier work): 22.0 ± 1.0% | Inhibition (%) MOR (human MOR [6]; displacement of [3H]DAMGO at 1.0 μM): 20 ± 1.0% | EC50 (KOR [7]): 580 ± 84 nM | KOR Emax% (KOR [7]): 187 ± 2%

CN(CCc1ccccc1)CC1CCc2cc(-c3ccccc3)ccc2C1(O)c1cccc(O)c1.Cl (stereo not shown) [FW-DIII-OH-2, 1-(3-hydroxyphenyl)-2-((methyl(phenethyl)amino)methyl)-6-phenyl-1,2,3,4-tetrahydronaphthalen-1-ol hydrochloride]
melting point: 202.1 to 204.6 °C | inhibition at 1 µM (KOR [1]): 13.5 ± 0.1% | Ki (DOR [2]): 228 nM and 229 nM | activity / affinity for DOR, in words (DOR [2]): moderate affinity

COc1ccccc1-c1ccc2c(c1)CCC(CN(C)C)C2(O)c1cccc(O)c1 (stereo not shown) [FW-AII-OH-2]
Inhibition (%) KOR (KOR [3]; displacement of [3H]U69593 at 1.0 μM): 17.7 ± 0.1% | Ki (DOR [4]; [3H]DPDPE, CHO membranes; >10^4 = no binding affinity up to 10^4 nM; read-out: Ki (±SEM) DOR; cited from earlier work): 4.64 nM and 4.7 nM | DOR Emax% (DOR [8]): 230 ± 7% | EC50 (DOR [8]): 9.3 ± 0.5 nM | Ki (human MOR [6]; [3H]DAMGO, CHO membranes, >10^4 = no binding affinity up to 10^4 nM, read-out: Ki (±SEM) MOR): > 10000 nM

CN(C)CC1CCc2ccccc2C1(O)c1cccc(O)c1 (stereo not shown) [FW-1]
inhibition at 1 µM (KOR [1]): 56.3 ± 4.9% | activity for KOR, in words (KOR [1]; in vitro): not be active | inhibition at 1 µM (DOR [2]): 21.7 ± 2.9% | activity / affinity for DOR, in words (DOR [2]): not be active | activity for MOR, in words (human MOR [9]; in vitro): not be active | Ki (human MOR [9]; read-out: Ki (±SEM) MOR): > 10000 nM

C[C@@H](NC(=O)[C@@H](N)Cc1ccc(O)cc1)C(=O)NCC(=O)N(C)[C@@H](Cc1ccccc1)C(=O)NCCO [DAMGO]
Emax (human MOR [5]): 205 ± 2.05%

Reference: article PMC9000250, “Computational Methods for Understanding the Selectivity and Signal Transduction Mechanism of Aminomethyl Tetrahydronaphthalene to Opioid Receptors” (Molecules, 2022)
